One data set is described as follows: Solubility in water. It is filed as physicochemical.
The subject of a further data set is vertigo. The data set is described as follows: Vertigo in clinical tests. It is filed as in vivo, man.
A further data set relates to adrenergic receptors. The data set is described as follows: α-blocking action: reversal of the hypertensive effect of adrenalin. It is filed as in vivo, dogs.
Another data set has as its system vertebral artery. The data set is described as follows: Vasodilating properties: injection into the vertebral artery in dogs. It is filed as in vivo. The following applies: injected locally into the femoral or vertebral artery. On the procedure: On injection into the vertebral artery, no effect is observed at doses of less than 1 mg/kg. At a dose of 10 mg/kg, the flow rate increases by 37% and at a dose of 20 mg/kg it only increases by 27%. At these two doses, the arterial pressure decreases respectively by 14 and 28% although no effect had been observed during the injection into the femoral artery.

Data set [1] is described as follows: Analgesic activity, subcutaneous. The settings on record: injected subcutaneously. It is filed as in vivo.
Data set [2] can be described thus: Acute toxicity, intravenous, in mice. The settings on record: mouse, in vivo.
Another data set concerns intestinal barrier. Briefly: Intraduodenal administration in dogs: cardiovascular effects and passage through the intestinal barrier. Format: in vivo. The following applies: intraduodenally.
The test system of data set [3] is vertebral, femoral and mesenteric artery flow rates. Briefly: Vasodilating and cardiovascular properties on intravenous administration in dogs.
Method: During the series of pharmacological tests, the following parameters were used:
Arterial pressure (abbreviated to AP): this parameter, expressed in mm Hg) is evaluated in accordance with the usual conditions.
Arterial resistance: this parameter (expressed in dynes/sec./cm^-^5) is calculated according to the ratio [formula] Cardiac index: this parameter is expressed in (ml/min.)/kg. Systolic index: this parameter is equal to the ratio cardiac index/frequency.
Cardiac work: this parameter (expressed in kgm/min.) is calculated according to the relationship: Cardiac work = average AP (mm Hg) × 1.36 = cardiac output (1/min.) × 10^-^3.
Ratio dp/dt: this parameter corresponds to the variation in pressure expressed in mm Hg per second (in English: Rate of rise of left ventricular pressure).
The technique used to measure the ratio dp/dt is as follows:
The cardiac output is determined in Beagle dogs weighing 10 to 15 kg, anesthetised with pentobarbital, by injecting Carbiogreen (1 mg in 0.5 ml) into the right ventricle. A catheter introduced via the carotid artery into the aorta makes it possible to aspirate arterial blood at the rate of 25 ml/min. and to pass it in front of the photoelectric cell of a Beckman cardiodensitometer. The results are interpreted in accordance with the Hamilton method.
(§1) In the case of intravenous administration, the tests were carried out on 4 anaesthetised dogs. The product is perfused intravenously over the course of 5 minutes at doses of 2.5, 5 and 10 mg/kg and, in one test, is administered intraduodenally at a dose of 10 mg/kg.
For another data set, the system named is femoral artery. The data set is described as follows: Vasodilating properties: injection into the femoral artery in dogs. Format: in vivo. The settings on record: injected locally into the femoral or vertebral artery. The method, then: On injection into the femoral artery, no effect is observed at doses of less than 100 μg/kg. […] At these doses, no effect is observed on the arterial pressure AP measured in accordance with the usual conditions.
When administered intra-arterially, the product of Example 6 is injected directly into the femoral artery. The flow rate is increased by 200% from a dose of 10 μg.

Another data set relates to digestive ulcers. The settings on record: TOLDY et al. 1966; cited from earlier work.

Where a name gives a salt, the structure may show the parent alone.

Method for intestinal barrier: as §1

In the case of `OCCN1CCN(CC2COc3ccccc3O2)CC1` (stereo not shown) [Example 1, 1-[2-(1,4-Benzodioxanyl)-methyl]-4-(2-hydroxyethyl)-piperazine dihydrochloride], the solubility in water result in “Solubility in water” is reported as “soluble in water”. Also, the vertigo entry with vertigo is “caused vertigo in the majority of cases”. The α-blocking activity entry in the data set with adrenergic receptors (administered parenterally) is “α-blocking”.

As for `CC(C)(C)c1ccc2c(c1)OCC(CN1CCN(CCO)CC1)O2` (stereo not shown) [Example 5, 1-[2-(6- or 7-{tertiarybutyl}-1,4-benzodioxanyl)-methyl]-4-(2-hydroxyethyl)-piperazine dihydrochloride], in the data set with vertebral artery, the “vertebral flow rate, local injection” value was “increases both these flow rates in proportion to the doses, but with a preference for the femoral flow rate”. For the same compound, the analgesic activity result in data set [1] is reported as “analgesic activity of the morphine type”. Further, the LD50 in data set [2] (read-out: LD-50 I.V. in mice) came out at 140 ± 8 mg/kg. Further, the NOAEL in [2] (read-out: Maximum non-toxic dose) turned out to be 100 mg/kg. Further, in the data set on intestinal barrier (Canis lupus familiaris, intraduodenal, read-out: dose from which the pulse rate decreases), the minimal effective dose worked out at 7 mg/kg. In addition, the vasodilating effect result with intestinal barrier (successively 3.5, 7, 15 and 35 mg/kg) is recorded as “no vasodilating effect”. In data set [3] (2 dogs, i.v.), the “dose dependence of femoral vasodilating action” value is listed as “not proportional to the dose”, the “dose from which femoral vasodilating action is maximum” value stood at 3.5 mg/kg and the vertebral dilating action result was “no vertebral dilating action”. The bradycardia result in [3] (2 dogs, i.v., 15 mg/kg (last dose)) is on record as “a bradycardia”. Besides, the “femoral vasodilating action, maximum” value in data set [3] (2 dogs, i.v., from 3.5 mg/kg, increase (+)) stood at 60%. The “effect on the AP” value in data set [3] (2 dogs, i.v., up to 15 mg/kg) is “no effect on the AP”. Besides, in [3] (summary), the vasodilating effect result is “exclusively peripheral and very moderate vasodilating effect”. The “femoral flow rate, local injection” value in the data set on femoral artery is listed as “increases both these flow rates in proportion to the doses, but with a preference for the femoral flow rate”.

Regarding `OCCN1CCN(CC2COc3ccccc3O2)CC1` (stereo not shown) [free base, 1-[2-(1,4-benzodioxanyl)-methyl]-4-(2-hydroxyethyl)-piperazine, reference compound], in the data set on digestive ulcers, the “activity in the treatment of digestive ulcers” value is “devoid of such activity”. Also, the “α-blocking activity (counteracting the hypertensive effects of adrenalin)” value in the data set with adrenergic receptors (orally to dogs) was “does not show any α-blocking activity”.

These data come from US3944549A, “Amino derivatives of 1,4-benzodioxan” (priority 1972, dated 1976).
